Data on 7 compounds can be found in US9340590B2 (priority 2011, dated 2016).

Common to all, as to assay: cell-based
The target of one test is hNav1.7 (Homo sapiens, UniProt Q15858). The test is classed as cell-based. The note with it: IonWorks Quattro, read-out: IWQ Use Nav1.7. (The patch-clamp technique gives a direct electrical read-out from membranes.)
The target in another test is hNav1.3 (Homo sapiens, UniProt Q9NY46). The note with it: IonWorks Quattro, read-out: IWQ Use Nav1.3.
In a further test the target is hNav1.5 (Homo sapiens, UniProt Q14524). The note with it: IonWorks Quattro, read-out: IWQ Use Nav1.5.

Like-named read-outs stand apart in the source and are kept apart here. Positions of bridges follow the written chain, without caps; N, C: chain ends. Non-standard residues stand in square brackets, D forms with d. Residues, ends and D or L forms follow the SMILES beside them. hArg = N=C(N)NCCCC[C@H](N)C(=O)O; Phg = N[C@H](C(=O)O)c1ccccc1

hNav1.3, sequence (Q9NY46 whole entry, looked up): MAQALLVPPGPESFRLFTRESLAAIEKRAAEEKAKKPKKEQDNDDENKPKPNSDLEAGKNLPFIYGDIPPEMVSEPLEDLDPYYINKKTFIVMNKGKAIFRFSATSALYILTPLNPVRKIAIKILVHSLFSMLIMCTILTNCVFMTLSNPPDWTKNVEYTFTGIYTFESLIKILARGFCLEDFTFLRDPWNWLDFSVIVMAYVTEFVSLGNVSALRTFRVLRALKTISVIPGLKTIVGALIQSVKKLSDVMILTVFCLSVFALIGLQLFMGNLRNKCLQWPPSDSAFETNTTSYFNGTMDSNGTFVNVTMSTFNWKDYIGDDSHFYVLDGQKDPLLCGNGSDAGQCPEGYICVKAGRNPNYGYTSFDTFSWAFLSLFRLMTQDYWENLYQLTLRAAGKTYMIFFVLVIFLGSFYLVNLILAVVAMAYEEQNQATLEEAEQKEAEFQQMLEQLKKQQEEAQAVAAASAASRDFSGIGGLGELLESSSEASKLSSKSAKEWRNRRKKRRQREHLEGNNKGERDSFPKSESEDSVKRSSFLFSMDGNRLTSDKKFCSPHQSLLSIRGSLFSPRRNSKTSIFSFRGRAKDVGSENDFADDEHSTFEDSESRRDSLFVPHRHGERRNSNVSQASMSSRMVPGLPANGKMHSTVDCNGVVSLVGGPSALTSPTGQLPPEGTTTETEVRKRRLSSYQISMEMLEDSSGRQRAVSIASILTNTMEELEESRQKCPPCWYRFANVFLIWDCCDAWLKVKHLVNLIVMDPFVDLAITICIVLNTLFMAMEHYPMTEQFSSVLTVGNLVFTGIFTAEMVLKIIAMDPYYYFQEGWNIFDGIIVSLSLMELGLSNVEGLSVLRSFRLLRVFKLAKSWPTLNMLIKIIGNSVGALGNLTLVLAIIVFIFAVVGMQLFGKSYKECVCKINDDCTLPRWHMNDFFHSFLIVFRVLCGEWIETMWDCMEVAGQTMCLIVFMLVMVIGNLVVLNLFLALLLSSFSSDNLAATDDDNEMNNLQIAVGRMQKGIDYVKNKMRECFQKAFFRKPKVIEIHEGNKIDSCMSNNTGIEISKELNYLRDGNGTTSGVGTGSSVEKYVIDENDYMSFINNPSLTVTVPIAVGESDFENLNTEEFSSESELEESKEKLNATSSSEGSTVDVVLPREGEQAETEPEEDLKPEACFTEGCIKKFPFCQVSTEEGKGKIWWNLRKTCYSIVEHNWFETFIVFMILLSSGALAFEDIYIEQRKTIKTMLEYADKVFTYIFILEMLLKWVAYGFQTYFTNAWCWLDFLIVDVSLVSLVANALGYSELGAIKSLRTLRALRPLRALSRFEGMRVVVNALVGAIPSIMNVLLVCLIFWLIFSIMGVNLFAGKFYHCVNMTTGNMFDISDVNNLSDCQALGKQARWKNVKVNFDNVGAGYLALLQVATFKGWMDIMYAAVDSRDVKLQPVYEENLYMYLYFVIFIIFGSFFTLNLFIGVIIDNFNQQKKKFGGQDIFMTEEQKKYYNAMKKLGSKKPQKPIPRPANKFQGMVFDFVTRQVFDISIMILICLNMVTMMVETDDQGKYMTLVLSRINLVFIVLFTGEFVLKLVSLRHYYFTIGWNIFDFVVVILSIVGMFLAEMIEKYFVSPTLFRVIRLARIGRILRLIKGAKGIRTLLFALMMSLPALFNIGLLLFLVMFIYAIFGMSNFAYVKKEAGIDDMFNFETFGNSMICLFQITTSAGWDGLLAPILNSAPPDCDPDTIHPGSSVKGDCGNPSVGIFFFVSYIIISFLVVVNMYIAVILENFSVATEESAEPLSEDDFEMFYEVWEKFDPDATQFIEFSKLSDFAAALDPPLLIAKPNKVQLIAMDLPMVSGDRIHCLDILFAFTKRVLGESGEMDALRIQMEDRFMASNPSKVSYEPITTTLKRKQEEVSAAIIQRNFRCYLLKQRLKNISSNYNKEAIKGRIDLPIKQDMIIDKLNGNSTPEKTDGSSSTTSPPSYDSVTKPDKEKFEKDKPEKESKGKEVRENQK
hNav1.5, sequence (Q14524 whole entry, looked up): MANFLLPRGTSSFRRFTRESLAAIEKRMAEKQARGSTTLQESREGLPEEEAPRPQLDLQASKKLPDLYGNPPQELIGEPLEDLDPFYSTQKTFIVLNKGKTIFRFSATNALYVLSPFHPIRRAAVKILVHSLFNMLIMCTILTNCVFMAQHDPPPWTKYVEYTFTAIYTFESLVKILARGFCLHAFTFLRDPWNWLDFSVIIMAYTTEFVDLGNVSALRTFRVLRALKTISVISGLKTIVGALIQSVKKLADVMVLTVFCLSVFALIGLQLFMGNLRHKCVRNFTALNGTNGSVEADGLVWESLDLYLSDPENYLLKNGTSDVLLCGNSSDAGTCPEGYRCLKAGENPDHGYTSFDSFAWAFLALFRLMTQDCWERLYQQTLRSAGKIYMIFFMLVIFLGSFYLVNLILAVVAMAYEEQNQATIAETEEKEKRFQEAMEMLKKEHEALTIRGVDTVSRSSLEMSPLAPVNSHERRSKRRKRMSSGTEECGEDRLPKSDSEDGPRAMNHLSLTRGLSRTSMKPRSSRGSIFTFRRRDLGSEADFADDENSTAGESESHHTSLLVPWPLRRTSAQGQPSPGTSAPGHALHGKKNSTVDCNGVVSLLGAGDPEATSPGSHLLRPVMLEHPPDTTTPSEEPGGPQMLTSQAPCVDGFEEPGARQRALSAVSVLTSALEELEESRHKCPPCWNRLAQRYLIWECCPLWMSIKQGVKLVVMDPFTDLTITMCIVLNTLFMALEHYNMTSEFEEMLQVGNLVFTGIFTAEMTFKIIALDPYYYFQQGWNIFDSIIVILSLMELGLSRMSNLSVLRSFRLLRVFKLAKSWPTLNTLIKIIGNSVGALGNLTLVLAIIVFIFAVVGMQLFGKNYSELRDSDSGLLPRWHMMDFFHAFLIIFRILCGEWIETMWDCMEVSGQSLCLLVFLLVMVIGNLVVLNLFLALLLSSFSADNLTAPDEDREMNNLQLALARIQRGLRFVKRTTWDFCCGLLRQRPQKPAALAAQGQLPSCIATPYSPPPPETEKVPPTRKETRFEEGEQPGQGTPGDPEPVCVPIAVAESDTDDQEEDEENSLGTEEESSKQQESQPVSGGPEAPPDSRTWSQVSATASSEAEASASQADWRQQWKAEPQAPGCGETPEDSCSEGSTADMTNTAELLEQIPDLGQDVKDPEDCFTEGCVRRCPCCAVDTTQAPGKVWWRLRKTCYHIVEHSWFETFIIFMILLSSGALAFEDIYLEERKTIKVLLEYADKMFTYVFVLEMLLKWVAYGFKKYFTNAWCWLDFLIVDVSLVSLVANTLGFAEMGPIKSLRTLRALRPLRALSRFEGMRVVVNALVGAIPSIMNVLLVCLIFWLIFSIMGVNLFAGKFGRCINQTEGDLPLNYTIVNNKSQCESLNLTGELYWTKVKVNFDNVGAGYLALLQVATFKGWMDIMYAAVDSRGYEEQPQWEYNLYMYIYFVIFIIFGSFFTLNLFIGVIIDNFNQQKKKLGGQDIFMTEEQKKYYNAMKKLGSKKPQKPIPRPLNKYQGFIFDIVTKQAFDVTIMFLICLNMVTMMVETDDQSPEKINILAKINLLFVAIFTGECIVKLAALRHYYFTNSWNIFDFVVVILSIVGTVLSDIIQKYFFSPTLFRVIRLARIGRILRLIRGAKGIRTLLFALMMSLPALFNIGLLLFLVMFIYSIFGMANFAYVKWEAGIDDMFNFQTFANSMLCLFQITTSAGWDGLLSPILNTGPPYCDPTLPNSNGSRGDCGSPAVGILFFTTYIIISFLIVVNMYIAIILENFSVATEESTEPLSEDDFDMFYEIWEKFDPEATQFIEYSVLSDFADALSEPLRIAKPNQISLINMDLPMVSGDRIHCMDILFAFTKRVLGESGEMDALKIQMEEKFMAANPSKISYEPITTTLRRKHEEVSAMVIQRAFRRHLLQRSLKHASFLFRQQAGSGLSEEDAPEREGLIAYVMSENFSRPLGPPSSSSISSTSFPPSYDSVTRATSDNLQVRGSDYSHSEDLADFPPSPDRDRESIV

For `CC[C@H](C)[C@@H]1NC(=O)[C@@H]2CSSC[C@@H]3NC(=O)[C@H](C(C)C)NC(=O)[C@H](CC(C)C)NC(=O)[C@H](CC(N)=O)NC(=O)[C@@H]4CCCN4C(=O)[C@H](CCCNC(=N)N)NC(=O)[C@H](CSSC[C@H](NC(=O)[C@@H](N)CC(=O)O)C(=O)N[C@@H](CC(C)C)C(=O)NCC(=O)NCC(=O)N[C@@H](C(C)C)C(=O)N[C@@H](CCCNC(=N)N)C(=O)N[C@@H](CCCCN)C(=O)N2)NC(=O)[C@H](CSSC[C@@H](C(=O)N[C@@H](CCCCN)C(=O)N[C@@H](Cc2ccc(O)cc2)C(=O)N[C@H](C(=O)N[C@@H](Cc2ccccc2)C(N)=O)C(C)C)NC(=O)[C@H](Cc2c[nH]c4ccccc24)NC(=O)[C@H](CCCCN)NC(=O)[C@H](Cc2c[nH]cn2)NC(=O)[C@H]([C@@H](C)O)NC(=O)[C@H](CCCNC(=N)N)NC(=O)[C@H](CO)NC3=O)NC(=O)[C@H](CCCCN)NC(=O)[C@H](CC(=O)O)NC(=O)[C@H](CC(N)=O)NC(=O)[C@H](CC(=O)O)NC(=O)[C@@H]2CCCN2C1=O` [compound 751] (H-DCLGGVRKCIPDNDKCCRPNLVCSRTHKWCKYVF-NH2; disulfide 2-17, 9-23, 16-30), the IC50 on hNav1.7 (use-dependent block, hNav1.7) is over 5000 nM; on hNav1.3 (use-dependent block, hNav1.3) it was over 5000 nM; at hNav1.5 (use-dependent block, hNav1.5), 25.5 µM.

`CC[C@H](C)[C@@H]1NC(=O)[C@@H]2CSSC[C@@H]3NC(=O)[C@H](C(C)C)NC(=O)[C@H](CC(C)C)NC(=O)[C@H](CC(N)=O)NC(=O)[C@@H]4CCCN4C(=O)[C@H](CCCNC(=N)N)NC(=O)[C@H](CSSC[C@H](NC(=O)[C@@H](N)CC(=O)O)C(=O)N[C@@H](CC(C)C)C(=O)NCC(=O)N[C@@H](Cc4ccccc4)C(=O)N[C@@H](CCSC)C(=O)N[C@@H](CCCNC(=N)N)C(=O)N[C@@H](CCCCN)C(=O)N2)NC(=O)[C@H](CSSC[C@@H](C(=O)N[C@@H](CCCCN)C(=O)N[C@@H](Cc2ccc(O)cc2)C(=O)N[C@@H](Cc2ccccc2)C(=O)N[C@@H](Cc2ccccc2)C(N)=O)NC(=O)[C@H](Cc2c[nH]c4ccccc24)NC(=O)[C@H](CCCCN)NC(=O)[C@H](Cc2c[nH]cn2)NC(=O)[C@H]([C@@H](C)O)NC(=O)[C@H](CCCNC(=N)N)NC(=O)[C@H](CO)NC3=O)NC(=O)[C@H](CCCCN)NC(=O)[C@H](CC(=O)O)NC(=O)[C@H](CC(N)=O)NC(=O)[C@H](CC(=O)O)NC(=O)[C@@H]2CCCN2C1=O` [compound 390] (H-DCLGFMRKCIPDNDKCCRPNLVCSRTHKWCKYFF-NH2; disulfide 2-17, 9-23, 16-30): the IC50 on hNav1.7 (Table 26, use, […]) amounted to 60 nM; on hNav1.3 (Table 26, use, […]) it was 40 nM; at hNav1.5 (Table 26, use, […]), 8.66 µM.

As for `CC[C@H](C)[C@@H]1NC(=O)[C@@H]2CSSC[C@@H]3NC(=O)[C@H](C(C)C)NC(=O)[C@H](CC(C)C)NC(=O)[C@H](CC(N)=O)NC(=O)[C@@H]4CCCN4C(=O)[C@H](CCCNC(=N)N)NC(=O)[C@H](CSSC[C@H](NC(=O)[C@@H](N)CC(=O)O)C(=O)N[C@@H](CC(C)C)C(=O)NCC(=O)N[C@@H](C)C(=O)N[C@@H](CCSC)C(=O)N[C@@H](CCCNC(=N)N)C(=O)N[C@@H](CCCCN)C(=O)N2)NC(=O)[C@H](CSSC[C@@H](C(=O)N[C@@H](CCCCN)C(=O)N[C@@H](Cc2ccc(O)cc2)C(=O)N[C@H](C(=O)N[C@@H](Cc2ccccc2)C(N)=O)C(C)C)NC(=O)[C@H](Cc2c[nH]c4ccccc24)NC(=O)[C@H](CCCCNC(=N)N)NC(=O)[C@H](Cc2c[nH]cn2)NC(=O)[C@H]([C@@H](C)O)NC(=O)[C@H](CCCNC(=N)N)NC(=O)[C@H](CO)NC3=O)NC(=O)[C@H](CCCCN)NC(=O)[C@H](CC(=O)O)NC(=O)[C@H](CC(N)=O)NC(=O)[C@H](CC(=O)O)NC(=O)[C@@H]2CCCN2C1=O` [compound 744] (H-DCLGAMRKCIPDNDKCCRPNLVCSRTH[hArg]WCKYVF-NH2; disulfide 2-17, 9-23, 16-30), the IC50 worked out at 470 nM at hNav1.7 (use-dependent block, hNav1.7); 820 nM at hNav1.3 (use-dependent block, hNav1.3); 39.7 µM on hNav1.5 (use-dependent block, hNav1.5).

As for `CC[C@H](C)[C@@H]1NC(=O)[C@@H]2CSSC[C@@H]3NC(=O)[C@H](C(C)C)NC(=O)[C@H](CC(C)C)NC(=O)[C@H](CC(N)=O)NC(=O)[C@@H]4CCCN4C(=O)[C@H](CCCNC(=N)N)NC(=O)[C@H](CSSC[C@H](NC(=O)[C@@H](N)CC(=O)O)C(=O)N[C@@H](CC(C)C)C(=O)NCC(=O)N[C@@H](Cc4ccccc4)C(=O)N[C@@H](CCSC)C(=O)N[C@@H](CCCNC(=N)N)C(=O)N[C@@H](CCCCN)C(=O)N2)NC(=O)[C@H](CSSC[C@@H](C(=O)N[C@@H](CCCCN)C(=O)N[C@@H](Cc2ccc(O)cc2)C(=O)N[C@H](C(=O)N[C@@H](CC(C)C)C(N)=O)C(C)C)NC(=O)[C@H](Cc2c[nH]c4ccccc24)NC(=O)[C@H](CCCCN)NC(=O)[C@H](Cc2c[nH]cn2)NC(=O)[C@H]([C@@H](C)O)NC(=O)[C@H](CCCNC(=N)N)NC(=O)[C@H](CO)NC3=O)NC(=O)[C@H](CCCCN)NC(=O)[C@H](CC(=O)O)NC(=O)[C@H](CC(N)=O)NC(=O)[C@H](CC(=O)O)NC(=O)[C@@H]2CCCN2C1=O` [compound 122] (H-DCLGFMRKCIPDNDKCCRPNLVCSRTHKWCKYVL-NH2; disulfide 2-17, 9-23, 16-30), the IC50 at hNav1.7 (use-dependent, […]) worked out at 240 nM; on hNav1.3 (use-dependent, […]), 130 nM; at hNav1.5 (use-dependent, […]), 8.46 µM.

Turning to `CC[C@H](C)[C@@H]1NC(=O)[C@@H]2CSSC[C@@H]3NC(=O)[C@H](C(C)C)NC(=O)[C@H](CC(C)C)NC(=O)[C@H](CC(N)=O)NC(=O)[C@@H]4CCCN4C(=O)[C@H](CCCNC(=N)N)NC(=O)[C@H](CSSC[C@H](NC(=O)[C@@H](N)CC(=O)O)C(=O)N[C@@H](CC(C)C)C(=O)NCC(=O)N[C@@H](Cc4ccccc4)C(=O)N[C@@H](CCSC)C(=O)N[C@@H](CCCNC(=N)N)C(=O)N[C@@H](CCCCN)C(=O)N2)NC(=O)[C@H](CSSC[C@@H](C(=O)N[C@@H](CCCCN)C(=O)N[C@@H](Cc2ccc(O)cc2)C(=O)N[C@H](C(=O)N[C@H](C(N)=O)c2ccccc2)C(C)C)NC(=O)[C@H](Cc2c[nH]c4ccccc24)NC(=O)[C@H](CCCCN)NC(=O)[C@H](Cc2c[nH]cn2)NC(=O)[C@H]([C@@H](C)O)NC(=O)[C@H](CCCNC(=N)N)NC(=O)[C@H](CO)NC3=O)NC(=O)[C@H](CCCCN)NC(=O)[C@H](CC(=O)O)NC(=O)[C@H](CC(N)=O)NC(=O)[C@H](CC(=O)O)NC(=O)[C@@H]2CCCN2C1=O` [compound 406] (H-DCLGFMRKCIPDNDKCCRPNLVCSRTHKWCKYV[Phg]-NH2; disulfide 2-17, 9-23, 16-30), the IC50 at hNav1.7 (use-dependent, […]) was found to be 40 nM; at hNav1.3 (use-dependent, […]), 20 nM; at hNav1.5 (use-dependent, […]) it was 5.95 µM.

For `CC[C@H](C)[C@@H]1NC(=O)[C@@H]2CSSC[C@@H]3NC(=O)[C@H](C(C)C)NC(=O)[C@H](CC(C)C)NC(=O)[C@H](CC(N)=O)NC(=O)[C@@H]4CCCN4C(=O)[C@H](CCCNC(=N)N)NC(=O)[C@H](CSSC[C@H](NC(=O)[C@@H](N)CC(=O)O)C(=O)N[C@@H](CC(C)C)C(=O)NCC(=O)N[C@@H](CO)C(=O)N[C@@H](CC(C)C)C(=O)N[C@@H](CCCNC(=N)N)C(=O)N[C@@H](CCCCN)C(=O)N2)NC(=O)[C@H](CSSC[C@@H](C(=O)N[C@@H](CCCCN)C(=O)N[C@@H](Cc2ccc(O)cc2)C(=O)N[C@H](C(=O)N[C@@H](Cc2ccccc2)C(N)=O)C(C)C)NC(=O)[C@H](Cc2c[nH]c4ccccc24)NC(=O)[C@H](CCCCN)NC(=O)[C@H](Cc2c[nH]cn2)NC(=O)[C@H]([C@@H](C)O)NC(=O)[C@H](CCCNC(=N)N)NC(=O)[C@H](CO)NC3=O)NC(=O)[C@H](CCCCN)NC(=O)[C@H](CC(=O)O)NC(=O)[C@H](CC(N)=O)NC(=O)[C@H](CC(=O)O)NC(=O)[C@@H]2CCCN2C1=O` [compound 643] (H-DCLGSLRKCIPDNDKCCRPNLVCSRTHKWCKYVF-NH2; disulfide 2-17, 9-23, 16-30), the IC50 was 1300 nM at hNav1.7 (use-dependent protocol, hNav1.7); 3200 nM on hNav1.3 (use-dependent protocol, hNav1.3); over 5 µM at hNav1.5 (use-dependent protocol, hNav1.5).

Take `CC[C@H](C)[C@@H]1NC(=O)[C@@H]2CSSC[C@@H]3NC(=O)[C@H](C(C)C)NC(=O)[C@H](CC(C)C)NC(=O)[C@H](CC(N)=O)NC(=O)[C@@H]4CCCN4C(=O)[C@H](CCCNC(=N)N)NC(=O)[C@H](CSSC[C@H](NC(=O)[C@@H](N)CC(=O)O)C(=O)N[C@@H](CC(C)C)C(=O)NCC(=O)N[C@@H](Cc4cccnc4)C(=O)N[C@@H](CCSC)C(=O)N[C@@H](CCCNC(=N)N)C(=O)N[C@@H](CCCCN)C(=O)N2)NC(=O)[C@H](CSSC[C@@H](C(=O)N[C@@H](CCCCN)C(=O)N[C@@H](Cc2ccc(O)cc2)C(=O)N[C@H](C(=O)N[C@@H](Cc2ccccc2)C(N)=O)C(C)C)NC(=O)[C@H](Cc2c[nH]c4ccccc24)NC(=O)[C@H](CCCCN)NC(=O)[C@H](Cc2c[nH]cn2)NC(=O)[C@H]([C@@H](C)O)NC(=O)[C@H](CCCNC(=N)N)NC(=O)[C@H](CO)NC3=O)NC(=O)[C@H](CCCCN)NC(=O)[C@H](CC(=O)O)NC(=O)[C@H](CC(N)=O)NC(=O)[C@H](CC(=O)O)NC(=O)[C@@H]2CCCN2C1=O` [compound 596]: the IC50 at hNav1.7 (use-dependent block, hNav1.7) was 2600 nM; at hNav1.3 (use-dependent block, hNav1.3) it was over 5000 nM; at hNav1.5 (use-dependent block, hNav1.5), over 5 µM.
